Experimental data taken from patent US20240294551A1 (AMGEN INC., priority 2022, published 2024).
Read-outs that look alike come from different tables or passages of the source.

How the values were obtained:
[1] = target: His-tagged KRAS G12D protein (Homo sapiens (Human), UniProt P01116, G12D); assay: KRAS G12D TR-FRET Assay; assay type: binding
Description: Compounds of interest were prepared in a dose-response titration in DMSO, and 80 nL were added via Labcyte Echo to each well of a 384-well plate (Perkin Elmer 6008280). The His-tagged KRAS G12D protein (Amgen) was diluted to 20 nM in Assay Buffer (20 mM HEPES, pH 7.4, 10 mM MgCl2, 50 mM NaCl, 0.1% BSA, 0.01% Tween-20, 10 μM GDP) and 2 μL was added to the appropriate wells of the 384-well plate. The plate was incubated for 30 minutes at room temperature. Biotinylated KRPep-2d substrate (Amgen) was diluted to 20 nM in Assay Buffer and 2 μL was added to all wells and incubated for 1 hour at room temperature. Detection Reagent (0.4 nM LANCE Eu-W1024 Anti-6×His (Perkin Elmer AD0401), 5 nM streptavidin-d2 (Cisbio 610SADLA)) was prepared in Assay Buffer, then 4 μL was added to the plate and incubated for 1 hour at room temperature. Plates were read using PerkinElmer EnVision (ex: 320 nm, em1: 665 nm, em2: 615 nm) and em1/em2 data was used to generate curve fits using a 4-parameter logistic model to calculate IC50 values.

[2] = target: GDP-bound KRAS protein (aa 1-169), containing both G12D and C118A amino acid substitutions (Homo sapiens (Human), UniProt P01116, C118A/G12D); assay: KRAS G12D Coupled Nucleotide Exchange Assay; assay type: biochemical
Description: KRAS G12D Coupled Nucleotide Exchange Assay
Following compound pre-incubation, purified SOS protein (aa 564-1049) and GTP (Roche 10106399001) were added to the assay wells and incubated for an additional 30 min. To determine the extent of inhibition of SOS-mediated nucleotide exchange, purified GST-tagged cRAF (aa 1-149), nickel chelate AlphaLISA acceptor beads (PerkinElmer AL108R), and AlphaScreen glutathione donor beads (PerkinElmer 6765302) were added to the assay wells and incubated for 10 minutes. The assay plates were then read on a PerkinElmer EnVision Multilabel Reader, using AlphaScreen® technology, and data were analyzed using a 4-parameter logistic model to calculate IC50 values.

[3] = read-out: KRAS G12D Binding IC50
[4] = read-out: KRAS G12D Coupled Exchange IC50

Chain of GDP-bound KRAS protein (aa 1-169), containing both G12D and C118A amino acid substitutions (P01116 other isoform, or with tags, fused parts or gaps G12D/C118A): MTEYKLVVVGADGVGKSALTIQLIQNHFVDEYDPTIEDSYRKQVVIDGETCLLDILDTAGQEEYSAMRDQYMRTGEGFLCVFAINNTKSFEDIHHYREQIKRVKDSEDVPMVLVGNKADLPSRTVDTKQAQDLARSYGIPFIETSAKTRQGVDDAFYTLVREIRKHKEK
Chain of His-tagged KRAS G12D protein (P01116 other isoform, or with tags, fused parts or gaps G12D): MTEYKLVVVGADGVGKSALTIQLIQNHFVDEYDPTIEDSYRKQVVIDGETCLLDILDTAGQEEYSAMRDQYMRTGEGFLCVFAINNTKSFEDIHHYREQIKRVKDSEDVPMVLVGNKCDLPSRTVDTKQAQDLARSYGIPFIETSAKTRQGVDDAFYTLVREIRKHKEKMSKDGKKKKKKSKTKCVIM

IC50 [1, 3]	IC50 [2, 4]	IC50 ([1]; TR-FRET, read-out: KRAS G12D Binding)	IC50 ([2]; 2 hours compound pre-incubation, read-out: KRAS G12D Coupled Exchange)	Structure (SMILES)
617 nM	268 nM			Cc1nc2c3cnc(c(F)c3n1)-c1c(c(C)cc3[nH]ncc13)[C@H]1C[C@H]1COC(=O)O[C@@H]1CCCN2C1 [Example 211, (11S,13R,18R)-31-fluoro-9,25-dimethyl-15,17-dioxa-5,6,22,24,26,30-hexaazaheptacyclo[25.3.1.1~18,22~.0~2,10~.0~3,7~.0~11,13~.0~23,28~]dotriaconta-1(31),2,4,7,9,23,25,27,29-nonaen-16-one]
1270 nM	831 nM			O=C1N[C@@H]2CCCCN(C2)c2nc(OC[C@@]34CCCN3C[C@H](F)C4)nc3c(F)c(ncc23)-c2c3c(cc4[nH]ncc24)CC[C@@H]3CCO1 [Example 302, (16R,22R)-34-fluoro-8-(((2R,7aS)-2-fluorotetrahydro-1H-pyrrolo[1,2-a]pyrrol-7a(5H)-yl)methoxy)-19-oxa-3,7,9,11,17,28,29-heptaazaheptacyclo[20.9.1.1~2,6~.1~11,16~.0~5,10~.0~25,32~.0~27,31~]tetratriaconta-1(31),2(34),3,5,7,9,25(32),26,29-nonaen-18-one]
651 nM	481 nM			O=C1CCCCc2c(Cl)cccc2-c2ncc3c(nc(OC[C@@]45CCCN4C[C@H](F)C5)nc3c2F)N2CCC[C@H](C2)N1 [Example 59, (23R)-15-chloro-28-fluoro-4-(((2R,7aS)-2-fluorotetrahydro-1H-pyrrolo[1,2-a]pyrrol-7a(5H)-yl)methoxy)-1,3,5,9,22-pentaazapentacyclo[21.3.1.1~6,10~.0~2,7~.0~11,16~]octacosa-2,4,6,8,10(28),11,13,15-octaen-21-one]
1910 nM	610 nM			O=C1N[C@H]2C[C@@H](O)CN(C2)c2nc(OC[C@@]34CCCN3C[C@H](F)C4)nc3c(F)c(ncc23)-c2c(c(Cl)cc3[nH]ncc23)CCCO1 [Example 285, (17S,19R)-9-chloro-30-fluoro-24-(((2R,7aS)-2-fluorotetrahydro-1H-pyrrolo[1,2-a]pyrrol-7a(5H)-yl)methoxy)-19-hydroxy-14-oxa-5,6,16,21,23,25,29-heptaazahexacyclo[24.3.1.1~17,21~.0~2,10~.0~3,7~.0~22,27~]hentriaconta-1(30),2,4,7,9,22,24,26,28-nonaen-15-one]
221 nM	194 nM			Cc1cc2[nH]ncc2c2c1CCCCC(=O)N1CC3CCN(CC3C1)c1nc(OC[C@@]34CCCN3C[C@H](F)C4)nc3c(F)c-2ncc13 (mixture of isomers) [Example 57]
279 nM	212 nM			Cc1cc2[nH]ncc2c2c1CCCCC(=O)OC1CN(CC(F)(F)C1)c1nc(OC[C@@]34CCCN3C[C@H](F)C4)nc3c(F)c-2ncc13 (mixture of isomers) [Example 81]
583 nM	344 nM			Fc1c2ncc3c(nc(OC[C@@]45CCCN4C[C@H](F)C5)nc13)N1CCC[C@@H](C1)c1coc(n1)CCCc1c(Cl)cc3[nH]ncc3c1-2 [Example 245, (18S)-9-chloro-31-fluoro-25-(((2R,7aS)-2-fluorotetrahydro-1H-pyrrolo[1,2-a]pyrrol-7a(5H)-yl)methoxy)-15-oxa-5,6,22,24,26,30,33-heptaazaheptacyclo[25.3.1.1~14,17~.1~18,22~.0~2,10~.0~3,7~.0~23,28~]tritriaconta-1(31),2,4,7,9,14(33),16,23,25,27,29-undecaene]
443 nM	513 nM			O=C1CCCc2cccc3cccc(c23)-c2ncc3c(nc(OC[C@@]45CCCN4C[C@H](F)C5)nc3c2F)N2CCC[C@H](C2)O1 [Example 29, (15R)-31-Fluoro-8-(((2R,7aS)-2-fluorotetrahydro-1H-pyrrolo[1,2-a]pyrrol-7a(5H)-yl)methoxy)-16-oxa-3,7,9,11-tetraazahexacyclo[19.7.1.1˜2,6˜.1˜11,15˜.0˜5,10˜.0˜25,29˜]hentriaconta-1(28),2(31),3,5,7,9,21,23,25(29),26-decaen-17-one bis(2,2,2-trifluoroacetate)]
306 nM	119 nM			O=C1CCCc2c(F)ccc3cccc(c23)-c2ncc3c(nc(OC[C@@]45CCCN4C[C@H](F)C5)nc3c2F)N2CC[C@@H]3CCN1[C@@H]3C2 [Example 71, (27R,31S)-18,33-Difluoro-4-(((2R,7aS)-2-fluorotetrahydro-1H-pyrrolo[1,2-a]pyrrol-7a(5H)-yl)methoxy)-1,3,5,9,24 pentaazaheptacyclo[22.5.2.1˜6,10˜.1˜11,15˜.0˜2,7˜.0˜19,32˜.0˜27,31˜]tritriaconta-2,4,6,8,10(33),11,13,15(32),16,18-decaen-23-one]
277 nM	274 nM			O=C1CCCc2c(F)ccc3cccc(c23)-c2ncc3c(nc(OC[C@@]45CCCN4C[C@H](F)C5)nc3c2F)N2CCOC[C@H](C2)N1 [Example 70, (16S)-23,32-difluoro-8-(((2R,7aS)-2-fluorotetrahydro-1H-pyrrolo[1,2-a]pyrrol-7a(5H)-yl)methoxy)-14-oxa-3,7,9,11,17-pentaazahexacyclo[20.7.1.1~2,6~.1~11,16~.0~5,10~.0~26,30~]dotriaconta-1(29),2(32),3,5,7,9,22,24,26(30),27-decaen-18-one]
302 nM	292 nM			O=C1CCCCc2cccc3cc(O)cc(c23)-c2ncc3c(nc(OC[C@@]45CCCN4C[C@H](F)C5)nc3c2F)N2CCCN1CC2 [Example 9, 32-Fluoro-4-(((2R,7aS)-2-fluorotetrahydro-1H-pyrrolo[1,2-a]pyrrol-7a(5H)-yl)methoxy)-13-hydroxy-1,3,5,9,25-pentaazahexacyclo[23.3.2.1˜6,10˜.1˜11,15˜.0˜2,7˜.0˜19,31˜]dotriaconta-2,4,6(32),7,9,11(31),12,14,16,18-decaen-24-one bis(2,2,2-trifluoroacetate)]
		3960 nM	1020 nM	Fc1c2ncc3c(nc(OC[C@@]45CCCN4C[C@H](F)C5)nc13)N1CCO[C@@H](C1)c1coc(n1)CCCc1c(Cl)cc3[nH]ncc3c1-2 [Example 389, (18S)-9-chloro-31-fluoro-25-(((2R,7aS)-2-fluorotetrahydro-1H-pyrrolo[1,2-a]pyrrol-7a(5H)-yl)methoxy)-15,19-dioxa-5,6,22,24,26,30,33-heptaazaheptacyclo[25.3.1.1~14,17~.1~18,22~.0~2,10~.0~3,7~.0~23,28~]tritriaconta-1(31),2,4,7,9,14(33),16,23,25,27,29-undecaene]
77 nM	65 nM			Fc1c2ncc3c(nc(OC[C@@]45CCCN4C[C@H](F)C5)nc13)N1CCC[C@H](C1)Cn1cc(nn1)CCc1c(Cl)cc3[nH]ncc3c1-2 [Example 146]
79 nM	44 nM			CN1C(=O)OCCCc2c(Cl)cc3[nH]ncc3c2-c2ncc3c(nc(OC[C@@]45CCCN4C[C@H](F)C5)nc3c2F)N2CCOC[C@@H]1C2 [Example 178, (26S)-18-chloro-32-fluoro-4-(((2R,7aS)-2-fluorotetrahydro-1H-pyrrolo[1,2-a]pyrrol-7a(5H)-yl)methoxy)-25-methyl-23,28-dioxa-1,3,5,9,14,15,25-heptaazahexacyclo[24.4.1.1~6,10~.0~2,7~.0~11,19~.0~12,16~]dotriaconta-2,4,6,8,10(32),11,13,16,18-nonaen-24-one]
	149 nM			[2H]C([2H])([2H])[C@]12COCCN(C1)c1nc(OC[C@@]34CCCN3C[C@H](F)C4)nc3c(F)c(ncc13)-c1c(c(C)cc3[nH]ncc13)CCCOC(=O)O2 [Example 351, (26R)-32-fluoro-4-(((2R,7aS)-2-fluorotetrahydro-1H-pyrrolo[1,2-a]pyrrol-7a(5H)-yl)methoxy)-18-methyl-26-(~2~H_3_)methyl-23,25,28-trioxa-1,3,5,9,14,15-hexaazahexacyclo[24.4.1.1~6,10~.0~2,7~.0~11,19~.0~12,16~]dotriaconta-2,4,6,8,10(32),11,13,16,18-nonaen-24-one]
	531 nM			[2H]C([2H])([2H])[C@]12COCCN(C1)c1nc(OC[C@@]34CCCN3C[C@H](F)C4)nc3c(F)c(ncc13)-c1c(c(Cl)cc3[nH]ncc13)CCCOC(=O)O2 [Example 354, (26R)-18-chloro-32-fluoro-4-(((2R,7aS)-2-fluorotetrahydro-1H-pyrrolo[1,2-a]pyrrol-7a(5H)-yl)methoxy)-26-(~2~H_3_)methyl-23,25,28-trioxa-1,3,5,9,14,15-hexaazahexacyclo[24.4.1.1~6,10~.0~2,7~.0~11,19~.0~12,16~]dotriaconta-2,4,6(32),7,9,11,13,16,18-nonaen-24-one]
